Assay results: EP1818058A2, “TREATMENT OF MMP-MEDIATED DERMATOLOGICAL DISEASES WITH PEMIROLAST” (Astion Pharma A/S, priority 2006, dated 2007)

Key:
acne vulgaris = assay: Case of treatment of acne vulgaris; assay type: in vivo, person
From the text: A person was suffering from acne vulgaris characterised by comedones and some inflammatory lesions. They had previously regularly used a 5% benzoyl peroxide cream to treat the condition. During a flare up of the condition they applied a 5.0% aqueous solution of Pemirolast (potassium salt) once daily for four weeks to the areas affected. […] The treatment was followed and assessed by a physician.

IL-1α = assay: Cytokine production, LPS induced human PBMC; assay type: cell-based; settings: statement in words only, no value given
Procedure: (§1) The inhibition of Pemirolast on cytokine production was determined using the assay "LPS induced human PBMC".

TNF-α = assay: Cytokine production, LPS induced human PBMC; assay type: cell-based; settings: concentration giving 50 % inhibition, read-out: Concentration of Pemirolast
Procedure: as §1

[1] = tested on: arachidonic acid-induced ear-inflammation; assay: Arachidonic acid-induced ear-inflammation test in mice; assay type: in vivo, female BALB/cA mice; settings: intraperitoneally 30 minutes before arachidonic acid on the right ear
Procedure: The anti-inflammatory potential of Pemirolast can be tested in "arachidonic acid-induced ear-inflammation test in mice", a commonly employed method for screening and evaluation of antiinflammatory drugs. Dexamethasone was employed as reference compound.
The study can be performed in female BALB/cA mice from M & B A/S, DK-8680 Ry. The test substances (various concentration of Pemirolast dissolved in aqueous solutions) and the reference compound are administered intraperitoneally in volumes of 20 ml per kg body weight 30 minutes before application of arachidonic acid to the ear. All groups are then treated with 20 µl arachidonic acid, 100 mg/ml in acetone, on the right ear. One hour after the application of arachidonic acid the mice are sacrificed, the ears cut from the tip with a punch biopsy knife (8 mm diameter) and weighed. Mean weights and standard deviations are calculated. Relative ear oedema is assessed as the weight difference between right and left ear of each mouse expressed as percent of the left ear. Percent inhibition of the relative ear oedema compared with the vehicle treated groups is calculated for the test substance and reference compound treated groups. […]

MMP-2 = target: T1, MMP-2 (Homo sapiens, UniProt P08253); assay: MMP enzyme assay (fluorogenic Mca peptide substrate, MDS Pharma Services); assay type: biochemical; settings: concentration giving 50 % inhibition; Human recombinant MMP-2; read-out: Concentration of Pemirolast
T1 sequence (P08253 110-660): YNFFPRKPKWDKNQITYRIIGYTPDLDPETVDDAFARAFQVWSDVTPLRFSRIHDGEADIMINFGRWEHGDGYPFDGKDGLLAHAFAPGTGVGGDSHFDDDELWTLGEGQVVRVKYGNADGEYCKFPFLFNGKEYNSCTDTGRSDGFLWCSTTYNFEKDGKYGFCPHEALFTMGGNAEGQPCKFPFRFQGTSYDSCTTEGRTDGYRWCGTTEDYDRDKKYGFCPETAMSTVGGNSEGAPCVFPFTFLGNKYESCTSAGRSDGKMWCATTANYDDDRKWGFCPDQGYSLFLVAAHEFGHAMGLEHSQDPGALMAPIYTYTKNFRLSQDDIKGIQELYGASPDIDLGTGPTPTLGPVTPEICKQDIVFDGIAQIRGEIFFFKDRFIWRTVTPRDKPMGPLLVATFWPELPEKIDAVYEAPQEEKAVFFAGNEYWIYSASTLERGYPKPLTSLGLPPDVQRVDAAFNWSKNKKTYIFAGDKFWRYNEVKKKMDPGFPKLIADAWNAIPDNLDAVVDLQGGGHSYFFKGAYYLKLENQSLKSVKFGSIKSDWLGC
Procedure: (§2) The inhibitory effect of Pemirolast on human MMP's and cytokines were determined by enzyme assays carried out by MDS Pharma Services.
(§3) The inhibition of MMP's can be determined according to the test methods described by Knight CG, Willenbrock F, Murphy G (A novel coumarin-labelled peptide for sensitive continuous assays of the matrix metalloproteinases, FEBS Lett. 1992 Jan 27;296(3):263-6); Johnson LL, Dyer R, Hupe DJ (Matrix metalloproteinases, Curr Opin Chem Biol. 1998 Aug;2(4):466-71); and Olson MW, Gervasi DC, Mobashery S, Fridman R (Kinetic analysis of the binding of human matrix metalloproteinase-2 and -9 to tissue inhibitor of metalloproteinase (TIMP)-1 and TIMP-2, J Biol Chem. 1997 Nov 21;272(47):29975-83). The methods employ Human rheumatoid synovial fibroblast (MMP-1) and Human recombinant (MMP-2 and MMP-3) and Human recombinant (E.coli) (MMP-7) as the MMP source. The substrate is Mca-Pro-Leu-Gly-Leu-Dpa-Ala-Arg-NH2. The enzymatic reaction is based on the conversion of Mca-Pro-Leu-Gly-Leu-Dpa-Ala-Arg to Mca-Pro-Leu-Gly + Leu-Dpa-Ala-Arg-NH2, where Mca-Pro-Leu-Gly is quantified using spectrofluorimetric quantitation. As reference compounds are employed TIMP-1 and TIMP-2. Such methods are commercially available at MDS Pharma Services.

MMP-1 = target: T2, MMP-1 (Homo sapiens, UniProt P03956); assay: as above; assay type: biochemical; settings: concentration giving 50 % inhibition; MMP-1 from Human rheumatoid synovial fibroblast; read-out: Concentration of Pemirolast
T2 construct: The methods employ Human rheumatoid synovial fibroblast (MMP-1); endogenous in cells; host or cells: Human rheumatoid synovial fibroblast
T2 sequence (P03956 100-469): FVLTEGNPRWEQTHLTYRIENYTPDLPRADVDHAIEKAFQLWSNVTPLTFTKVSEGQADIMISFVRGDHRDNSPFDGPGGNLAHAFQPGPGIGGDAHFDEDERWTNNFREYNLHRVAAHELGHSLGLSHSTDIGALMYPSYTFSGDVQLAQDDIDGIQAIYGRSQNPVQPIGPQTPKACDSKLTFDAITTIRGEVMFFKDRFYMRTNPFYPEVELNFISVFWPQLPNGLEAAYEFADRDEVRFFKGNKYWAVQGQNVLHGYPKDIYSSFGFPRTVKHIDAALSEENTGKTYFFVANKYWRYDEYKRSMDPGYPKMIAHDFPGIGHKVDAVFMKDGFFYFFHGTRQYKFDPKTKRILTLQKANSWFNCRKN
Procedure: as §2, §3

MMP-3 = MMP-3 (Homo sapiens, UniProt P08254); assay: as above; assay type: biochemical; settings: concentration giving 50 % inhibition; Human recombinant MMP-3; read-out: Concentration of Pemirolast
Chain of MMP-3 (P08254 100-477): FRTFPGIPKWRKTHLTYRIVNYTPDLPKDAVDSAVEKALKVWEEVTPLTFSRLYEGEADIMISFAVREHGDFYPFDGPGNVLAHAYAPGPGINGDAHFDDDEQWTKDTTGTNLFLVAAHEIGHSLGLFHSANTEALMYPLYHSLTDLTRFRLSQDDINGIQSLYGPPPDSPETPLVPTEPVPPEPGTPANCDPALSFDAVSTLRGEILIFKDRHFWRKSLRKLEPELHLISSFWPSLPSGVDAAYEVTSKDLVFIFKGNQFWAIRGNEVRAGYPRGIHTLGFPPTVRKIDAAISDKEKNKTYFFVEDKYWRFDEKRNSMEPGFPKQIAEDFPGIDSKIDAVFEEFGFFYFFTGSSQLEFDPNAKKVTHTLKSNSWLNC
Procedure: as §2, §3

MMP-7 = target: T3, MMP-7 (Homo sapiens, UniProt P09237); assay: as above; assay type: biochemical; settings: concentration giving 50 % inhibition; Human recombinant (E.coli) MMP-7; read-out: Concentration of Pemirolast
T3 construct: host or cells: E. coli
T3 sequence (P09237 95-267): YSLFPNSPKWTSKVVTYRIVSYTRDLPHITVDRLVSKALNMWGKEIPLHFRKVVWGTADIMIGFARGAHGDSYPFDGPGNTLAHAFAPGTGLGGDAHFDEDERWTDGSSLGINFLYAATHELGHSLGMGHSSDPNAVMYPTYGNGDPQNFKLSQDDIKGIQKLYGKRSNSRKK
Procedure: as §2, §3

[2] = person, 5.0% aqueous solution of Pemirolast (potassium salt) once daily for four weeks on affected areas

Row | IC50 (TNF-α) | IC50 (MMP-2) | IC50 (MMP-1) | IC50 (MMP-3) | IC50 (MMP-7) | Compound | reddened inflamed area (acne vulgaris; same patient, usual previous treatment with 5% benzoyl peroxide cream) | inhibition of IL-1α (IL-1α) | inflamed area surrounding the lesion (acne vulgaris; [2]) | inflammatory lesions (acne vulgaris; [2]) | inflammatory reaction in the arachidionic acid treated ear [1]
1 | – | – | – | – | – | O=C(OOC(=O)c1ccccc1)c1ccccc1 [benzoyl peroxide] | did not remove the reddened inflamed area | – | – | – | –
2 | 100 µM | 25 µM | 18 µM | 32 µM | 32 µM | Cc1cccn2c(=O)c(-c3nnn[nH]3)cnc12 [Pemirolast, 9-methyl-3-(1H-tetrazol-5-yl)-4H-pyrido[1,2-a]pyrimidin-4-one] | – | inhibits | recessed without any noticeable scarring | completely recessed | significantly prevented the inflammatory reaction
